US3975366A, “Process for the production of new pepstatins having anti-pepsin activity” (Zaidan Hojin Biseibutsu Kagaku Kenkyu Kai, priority 1971, dated 1976)
In brackets after ≈: the same amount, converted by molar mass. Several values for one entry are separate records, joined by “and”; a condition that tells them apart may be missing. Equal entries are not always repeated. Structures can show the parent of a compound that is named as a salt.

Key:
pepsin = pepsin (Sus scrofa, UniProt P00791); test: anti-pepsin activity (50% inhibition of pepsin, ID50); format: biochemical; design: ID50 (50% inhibition against pepsin): unit not given beside the values; settings: for ID50 (50% inhibition against pepsin): amount giving 50% inhibition of pepsin
Chain of pepsin (P00791 60-385): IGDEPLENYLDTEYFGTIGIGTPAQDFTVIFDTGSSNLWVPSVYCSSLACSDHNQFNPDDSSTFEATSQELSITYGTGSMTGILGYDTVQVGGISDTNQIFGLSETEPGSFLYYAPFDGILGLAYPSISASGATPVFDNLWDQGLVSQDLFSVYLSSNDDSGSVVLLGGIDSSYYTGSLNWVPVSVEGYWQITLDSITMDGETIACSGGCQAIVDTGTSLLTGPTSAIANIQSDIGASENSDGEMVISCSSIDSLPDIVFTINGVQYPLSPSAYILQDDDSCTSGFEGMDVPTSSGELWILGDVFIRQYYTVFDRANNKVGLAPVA

physchem = settings: methanol, organic solvent or mixture

CC(=NNc1ccc([N+](=O)[O-])cc1[N+](=O)[O-])C(CC(C)C)NC(=O)C(C)NC(=O)CC(O)C(CC(C)C)NC(=O)C(NC(=O)C(NC(=O)CC(C)C)C(C)C)C(C)C (stereo not drawn)
pepsin-inhibitory activity as % of the activity of pepstatin (pepstatin A) (pepsin; relative to pepstatin A): 37%

CCCCCC(=O)N[C@H](C(=O)N[C@H](C(=O)NC(CC(C)C)C(O)CC(=O)N[C@@H](C)C(=O)NC(CC(C)C)C(O)CC(=O)OC)C(C)C)C(C)C (stereo partly drawn) [methyl ester of pepstatin B]
solubility (physchem): 5 to 10 mg/mL (≈ 7 to 14 mM)
anti-pepsin activity compared with pepstatin methyl ester (pepsin; comparison in words): the same as that of pepstatin methyl ester
Id50 (pepsin; unit not given, third crystals of Example 3): 0.05

CCCCCC(=O)N[C@H](C(=O)N[C@H](C(=O)NC(CC(C)C)C(O)CC(=O)N[C@@H](C)C(=O)NC(CC(C)C)C(O)CC(=O)OCCCC)C(C)C)C(C)C (stereo partly drawn) [new pepstatin B n-butyl ester]
ID50 (50% inhibition against pepsin) (pepsin): 0.084 γ

CCCCCC(=O)N[C@H](C(=O)N[C@H](C(=O)NC(CC(C)C)C(O)CC(=O)N[C@@H](C)C(=O)NC(CC(C)C)C(O)CC(=O)OCC)C(C)C)C(C)C (stereo partly drawn) [pepstatin B ethyl ester]
ID50 (50% inhibition against pepsin) (pepsin): 0.054 γ

CCCCCC(=O)N[C@H](C(=O)N[C@H](C(=O)NC(CC(C)C)C(O)CC(=O)N[C@@H](C)C(=O)NC(CC(C)C)C(O)CC(=O)OCCC)C(C)C)C(C)C (stereo partly drawn) [pepstatin B n-propylester]
ID50 (50% inhibition against pepsin) (pepsin): 0.073 γ

CCCCCC(=O)N[C@H](C(=O)N[C@H](C(=O)N[C@@H](CC(C)C)[C@@H](O)CC(=O)N[C@@H](C)C(=O)N[C@@H](CC(C)C)[C@@H](O)CC(=O)O)C(C)C)C(C)C [pepstatin B]
solubility (physchem): 100 mg/mL (≈ 143 mM)

CCCCCC(=O)N[C@H](C(=O)N[C@H](C(=O)NC(CC(C)C)C(O)CC(=O)N[C@@H](C)C(=O)NC(CC(C)C)C(O)CC(=O)O)C(C)C)C(C)C (stereo partly drawn) [sodium salt of pepstatin B]
ID50 (50% inhibition against pepsin) (pepsin): 0.055 γ and 0.05 γ
